Data set [1] concerns S. aureus SA1. Conditions: D-BMAP18; strain SA1; broth microdilution, MH broth, 37°C 24 h; n = 6. Background: In broth dilution the organism is exposed to a series of concentrations in liquid medium.
Procedure: (§3) MIC values were determined using the broth microdilution method. Briefly, serial 2-fold dilutions of each peptide were prepared in Mueller-Hinton broth (MH; Difco) and aliquoted in round-bottom 96 well microtiter plates (Sarstedt). Each well was inoculated with a standardized inoculum to achieve a final test concentration of about 5 × 10^5 CFU/ml. […] To calculate the MBC, following the 24 h-incubation of the MIC assay, 25 μl of broth from clear wells were plated on MH agar plates, and incubated at 37°C for 24 h. MBC was defined as the lowest concentration of the peptide killing at least 99.9% of the original inoculum.
The subject of data set [2] is P. aeruginosa. The class given is cell-based, Pseudomonas aeruginosa. Conditions: 24 h. How it is done:
(§1) P. aeruginosa, S. maltophilia, and Staphylococcus aureus strains were originally isolated from respiratory specimens of CF patients admitted to the “Bambino Gesù” Children Hospital in Rome and previously tested with AMPs (Pompilio et al., [2012]). P. aeruginosa RP73, and PAO1 were tested as reference strains.
(§2) MIC values were determined using the broth microdilution method.

Data set [3] relates to S. aureus SA5. Kind of data set: MIC broth microdilution. It counts as cell-based, Staphylococcus aureus. Conditions: D-BMAP18, strain SA5, MH broth, 37°C 24 h, n = 6. How it is done:
as §2

Data set [4] deals with S. aureus SA7. As to the kind of experiment: MIC broth microdilution. Conditions: D-BMAP18, strain SA7, MH broth, 37°C 24 h, n = 6. The class given is cell-based, Staphylococcus aureus. How it is done:
as §2

Data set [5] relates to S. aureus SA3. As to the kind of experiment: MIC broth microdilution. It counts as cell-based, Staphylococcus aureus. Conditions: D-BMAP18, strain SA3, MH broth, 37°C 24 h, n = 6. How it is done: as §2
For data set [6], the system named is S. aureus SA4. Kind of data set: MIC broth microdilution. It counts as cell-based, Staphylococcus aureus. Conditions: D-BMAP18, strain SA4, MH broth, 37°C 24 h, n = 6. How it is done: as §2
Data set [7] has as its system C57BL/6NCrl mice. Kind of data set: In vivo acute toxicity, intratracheal. Set-up: species or system mouse. The protocol: In vivo acute toxicity of D-BMAP18 was evaluated in C57BL/6NCrl mice (n = 5/group) (male; 22 g; 6 ± 2 week-old) obtained from Charles River Laboratories Italia S.r.l. (Calco, Milan, Italy). Mice were intra-tracheally challenged with increasing doses (1, 2, 4, and 8 mg/kg) of D-BMAP18 prepared in sterile distilled water. Control mice received vehicle only (sterile distilled water). General health and animal behavior (ruffled coats, huddled position, lack of retreat in handler's presence), weight loss, and survival were monitored daily over a 5-day period, comparatively to control mice. […] Subsequently, lungs were removed en bloc from the chest via sterile excision and immediately weighed. These experiments were carried out in accordance with the recommendations of the Guide for the Care and Use of Laboratory Animals of the National Institute of Health and in accordance with the ethical standards of the Animal Care Committee of the “G. d'Annunzio” University of Chieti-Pescara. The protocol was approved by the Animal Care Committee of the “G. d'Annunzio” University of Chieti-Pescara.

In data set [8] the test system is S. maltophilia. The class given is cell-based, Stenotrophomonas maltophilia. Conditions: 24 h. The protocol: as §1, §2
For data set [9], the system named is S. aureus SA2. Conditions: D-BMAP18; strain SA2; broth microdilution, MH broth, 37°C 24 h; n = 6.
Procedure: as §3
Data set [10] deals with P. aeruginosa RP73. The class given is in vivo, mouse. Conditions: mouse, in vivo. The protocol:
C57/Bl6NCrl mice (n = 8/group) were intratracheally challenged with 1 × 10^7 cells P. aeruginosa RP73 clinical strain, and 5 min later a single dose of D-BMAP18 at different concentrations (0.5, 1, and 2 mg/kg) was intratracheally administrated. Sterile distilled water alone or tobramycin [10 mg/kg] (Sigma-Aldrich S.r.l.), were used respectively as negative and positive control. […] Subsequently, lungs were homogenized (24,000 rpm) on ice in 1 ml of sterile PBS by using Ultra-Turrax T25-Basic homogenizer (IKA-Werke GmbH & Co. KG, Germany). Ten-fold serial dilutions of lung homogenates were plated on MH agar (Oxoid SpA), and the number of colony-forming units (CFU) was counted after incubation at 37°C for 24 h.

Each structure is given as a SMILES string. In brackets after ≈: the same amount, converted by molar mass. Where a SMILES comes first, the peptide text is derived from it. [ ]: non-standard residue; d: D form. Bounds are passed on as bounds.

A word on the MIC: it is the smallest concentration in the dilution series that meets the test's criterion for growth inhibition. High values mean a need for much substance, low ones inhibition by little substance. Usually MIC90 stands for the lowest concentration that inhibits either 90% of growth or 90% of the strains tested, depending on the study. The low end stands for higher susceptibility, the high end for lower susceptibility. Take `CC(C)C[C@@H](NC(=O)[C@@H](CCCCN)NC(=O)[C@@H](CCCCN)NC(=O)[C@@H](Cc1ccccc1)NC(=O)[C@@H](CC(C)C)NC(=O)[C@@H](CCCCN)NC(=O)[C@@H](CCCCN)NC(=O)[C@@H](Cc1ccccc1)NC(=O)[C@@H](CCCCN)NC(=O)[C@@H](CCCCN)NC(=O)[C@@H](CCCNC(=N)N)NC(=O)[C@@H](Cc1ccccc1)NC(=O)[C@@H](CCCNC(=N)N)NC(=O)[C@@H](CCCCN)NC(=O)[C@@H](Cc1ccccc1)NC(=O)[C@@H](CCCNC(=N)N)NC(=O)CN)C(=O)N[C@H](CO)C(N)=O` [D-BMAP18] (H-G[dR][dF][dK][dR][dF][dR][dK][dK][dF][dK][dK][dL][dF][dK][dK][dL][dS]-NH2): the MIC in data set [1], in [3], in data set [4], in data set [5], in data set [6] and in data set [9] was greater than 32 µg/mL throughout. For the same compound, the MIC90 in data set [2] and in [8] was 16 µg/mL (≈ 6.83 µM) throughout. For the same compound, the “macroscopic lung pathology (four-point score)” value in data set [7] (1 mg/kg single intratracheal instillation, day 5 p.e., n = 5/group) is “No pulmonary damage”. Further, the “macroscopic lung pathology, median score (four-point scoring)” value in data set [7] (2 mg/kg single intratracheal instillation, day 5 p.e., n = 5/group, p < 0.05 vs control) was found to be 2.5; in data set [7] (8 mg/kg single intratracheal instillation, day 5 p.e., n = 5/group, p < 0.01 vs control), 3. Also, in [7] (1, 2, 4, 8 mg/kg intratracheal, first 2 days p.e., regardless of dose, vs unexposed control), the “change in body weight, first 2 days” value is recorded as “significant (p<0.01) decrease”. The “change in body weight” value in data set [7] (1-8 mg/kg intratracheal, over 5 days p.e., also at the lowest dose, dose-dependent) was “significant reduction in body weight”. The “trend between dose and macroscopic lung damage” value in [10] is given as “not statistically significant”.

The values above are taken from PMC5474674, “D-BMAP18 Antimicrobial Peptide Is Active In vitro, Resists to Pulmonary Proteases but Loses Its Activity in a Murine Model of Pseudomonas aeruginosa Lung Infection” (Frontiers in Chemistry, 2017).
